# Key:
# [1] = system: myocardial ischemia reperfusion (MIR); assay: Infarct size (TTC staining) in MIR animal model after intravenous bFGF; assay type: in vivo, rats (SD rats); conditions: MIR rats, 28 days after injection
# Procedure: Particularly, rats (SD rats, 8 weeks old, male, 230-270 g) were anesthetized with a mixture of isoflurane (3 cc min^-1), Rompun, xylazine (1 mg kg^-1) and oxygen in an induction chamber. Then, the rats were intubated and a mixture of isoflurane and oxygen was allowed to flow at a rate of 1 cc min^-1. The rat heart was exposed through left thoracotomy, followed by occulusion for 10 minutes. The suture line was quickly loosened to resume blood flow through the left anterior descending artery (LAD). […] Upon completion of the hemodynamic evaluation, the heart was separated and immersed in warm PBS ( 37° C.) to eliminate blood residues. Then, the heart was quickly frozen at -20° C., and the frozen heart was sliced lengthwise approximately 2 mm away the apex. The slice was placed on a cell culture dish, which was treated with 1% TTC (triphenyltetrazolium chloride) dissolved in PBS at 37° C. for 15 minutes. After staining, the heart slice was photographed with a scanner. Then, live tissues stained with red and necrotic tissues non-stained and thus presented as white were distinguished. The size of the infarct area was measured digitally using ImageJ software, and the results are presented as %.
# [2] = system: myocardial ischemia reperfusion (MIR); assay: In vivo hemodynamic evaluation of left ventricular function in MIR animal model; design: species or system rats (SD rats); conditions: MIR rats; for EDP / EDV / ESP / ESV / Ea / HR / SW / Tau: 5 μg i.v., 28 days
# Procedure: Particularly, rats (SD rats, 8 weeks old, male, 230-270 g) were anesthetized with a mixture of isoflurane (3 cc min^-1), Rompun, xylazine (1 mg kg^-1) and oxygen in an induction chamber. Then, the rats were intubated and a mixture of isoflurane and oxygen was allowed to flow at a rate of 1 cc min^-1. The rat heart was exposed through left thoracotomy, followed by occulusion for 10 minutes. The suture line was quickly loosened to resume blood flow through the left anterior descending artery (LAD). […] 28 days after the injection, in vivo hemodynamic evaluation was performed to investigate the left ventricular function using […]500 (Transonic, USA) outputting data to LabScribe data collection software (iWorx/CB Sciences, USA).
# [3] = Size of tannylated SP (particle size analyzer); assay type: physicochemical; conditions: [SP]/[TA] ratio of 20 or 10
# Procedure: The mixed solutions with the [SP]/[TA] ratios of 20, 10, 5, 1 and 0.5 prepared to produce tannylated SP in Example 2 were observed by naked eye. Then, the size of tannylated SP ([SP]/[TA] ratio=20 and 10, volume=1 mL) was analyzed using a particle size analyzer (Zetasizer nano-ZS, Malvern instrument, UK).
# [4] = biological target: T1, elastin (Homo sapiens, UniProt P15502); assay: SPR binding analysis of TA and elastin; conditions: surface adsorbed with elastin, TA 2 mg/mL
# T1 sequence (P15502 27-786): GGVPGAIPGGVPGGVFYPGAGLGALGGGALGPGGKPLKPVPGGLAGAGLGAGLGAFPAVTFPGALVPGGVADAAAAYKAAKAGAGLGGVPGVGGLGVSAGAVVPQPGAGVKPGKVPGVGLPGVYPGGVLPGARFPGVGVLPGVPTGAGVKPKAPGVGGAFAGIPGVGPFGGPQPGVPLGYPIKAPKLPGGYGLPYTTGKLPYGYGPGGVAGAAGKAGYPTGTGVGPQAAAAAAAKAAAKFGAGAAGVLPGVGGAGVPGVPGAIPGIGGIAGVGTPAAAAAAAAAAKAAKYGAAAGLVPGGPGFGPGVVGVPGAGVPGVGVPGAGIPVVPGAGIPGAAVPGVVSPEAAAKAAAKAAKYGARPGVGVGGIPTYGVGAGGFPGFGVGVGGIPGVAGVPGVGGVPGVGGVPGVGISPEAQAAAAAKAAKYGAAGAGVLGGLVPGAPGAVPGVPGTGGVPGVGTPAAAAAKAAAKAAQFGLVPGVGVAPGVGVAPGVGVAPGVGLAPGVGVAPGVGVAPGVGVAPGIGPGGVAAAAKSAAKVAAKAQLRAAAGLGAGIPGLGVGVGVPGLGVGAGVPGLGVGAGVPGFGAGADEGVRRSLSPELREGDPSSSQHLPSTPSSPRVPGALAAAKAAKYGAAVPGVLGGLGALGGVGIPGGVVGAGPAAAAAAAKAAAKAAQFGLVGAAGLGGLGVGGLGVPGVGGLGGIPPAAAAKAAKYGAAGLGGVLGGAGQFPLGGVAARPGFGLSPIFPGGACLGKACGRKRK
# Procedure: (§1) For SPR analysis, each solution of elastin, type I collagen (10 μg/mL) and TA (2 mg/mL) was prepared by diluting them in PBS (pH 7.3). All the solutions were filtered with 0.2 μm microfilter (Millipore, USA). Each protein (elastin or type I collagen) was adhered on Biacore gold (Au) sensor chip for 600 seconds. The chip was washed for 10 minutes to eliminate such samples attached weakly thereon. SPR analysis was performed at the flow rate of 10 μl/min using PBS as a flow buffer.
# [5] = Turbidimetry binding analysis of TA and heparin sulfate; conditions: HS 0.24 mg/mL, TA 17 mg/mL, 1:1
# Procedure: (§2) For turbidity analysis, each solution of elastin, type I collagen, HS and HA was prepared by diluting them in PBS at the concentration of 0.24 mg/mL. TA (17 mg/mL) was added to each solution at the volume ratio of 1:1, followed by mixing vigorously. Turbidity was measured at 600 nm using UV/vis spectrometer (HP8453, Hewlett-Packard, USA).
# [6] = biological target: T1, elastin; assay: ITC binding analysis of TA and elastin
# Procedure: Elastin (210 μg/mL) and TA (2.5 mg/mL) solutions were used for ITC analysis. Elastin was placed in a sample cell. The TA solution was placed in a syringe, which was injected to the elastin in the sample cell (250 μl) (50 sequential injections, 5 μl per injection) for titration (with stirring at 350 rpm). Time interval was set at 180 seconds for subsequent injection, and raw data was processed using Microcal Origin (Microcal Software, Northampton, USA).
# [7] = biological target: T2, type I collagen (Homo sapiens, UniProt P02452+P08123); assay: SPR binding analysis of TA and type I collagen; conditions: surface adsorbed with collagen, TA 2 mg/mL
# T2 sequence (P02452 162-1218 limits assumed): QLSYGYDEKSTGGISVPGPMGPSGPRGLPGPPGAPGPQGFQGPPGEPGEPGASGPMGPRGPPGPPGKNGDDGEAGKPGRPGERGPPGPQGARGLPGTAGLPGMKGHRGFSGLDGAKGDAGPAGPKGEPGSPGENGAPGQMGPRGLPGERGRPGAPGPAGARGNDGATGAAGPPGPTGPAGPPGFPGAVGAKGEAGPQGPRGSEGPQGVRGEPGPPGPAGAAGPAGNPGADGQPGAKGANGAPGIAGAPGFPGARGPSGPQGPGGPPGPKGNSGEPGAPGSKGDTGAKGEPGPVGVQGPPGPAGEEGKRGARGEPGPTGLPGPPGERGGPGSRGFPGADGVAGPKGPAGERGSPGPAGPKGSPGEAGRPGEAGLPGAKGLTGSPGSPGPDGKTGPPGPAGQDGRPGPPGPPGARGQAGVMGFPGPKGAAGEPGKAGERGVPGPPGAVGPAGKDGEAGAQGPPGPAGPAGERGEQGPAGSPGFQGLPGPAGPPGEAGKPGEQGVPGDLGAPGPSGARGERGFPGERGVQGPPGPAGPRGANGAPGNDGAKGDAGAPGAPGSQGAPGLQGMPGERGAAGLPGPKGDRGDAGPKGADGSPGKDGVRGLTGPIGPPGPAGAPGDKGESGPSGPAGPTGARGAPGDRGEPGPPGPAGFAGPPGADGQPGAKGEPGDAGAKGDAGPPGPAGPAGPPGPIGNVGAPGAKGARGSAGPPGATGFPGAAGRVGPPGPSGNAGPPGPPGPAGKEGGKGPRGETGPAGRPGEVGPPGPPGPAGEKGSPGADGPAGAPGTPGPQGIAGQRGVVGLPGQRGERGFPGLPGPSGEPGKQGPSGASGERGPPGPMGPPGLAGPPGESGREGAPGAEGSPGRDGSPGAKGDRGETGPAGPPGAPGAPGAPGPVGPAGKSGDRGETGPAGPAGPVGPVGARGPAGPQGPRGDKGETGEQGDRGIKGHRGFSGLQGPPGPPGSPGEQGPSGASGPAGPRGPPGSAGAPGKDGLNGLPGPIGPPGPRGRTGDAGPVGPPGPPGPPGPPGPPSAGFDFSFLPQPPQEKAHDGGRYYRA
# T2 sequence (P08123 80-1119 limits assumed): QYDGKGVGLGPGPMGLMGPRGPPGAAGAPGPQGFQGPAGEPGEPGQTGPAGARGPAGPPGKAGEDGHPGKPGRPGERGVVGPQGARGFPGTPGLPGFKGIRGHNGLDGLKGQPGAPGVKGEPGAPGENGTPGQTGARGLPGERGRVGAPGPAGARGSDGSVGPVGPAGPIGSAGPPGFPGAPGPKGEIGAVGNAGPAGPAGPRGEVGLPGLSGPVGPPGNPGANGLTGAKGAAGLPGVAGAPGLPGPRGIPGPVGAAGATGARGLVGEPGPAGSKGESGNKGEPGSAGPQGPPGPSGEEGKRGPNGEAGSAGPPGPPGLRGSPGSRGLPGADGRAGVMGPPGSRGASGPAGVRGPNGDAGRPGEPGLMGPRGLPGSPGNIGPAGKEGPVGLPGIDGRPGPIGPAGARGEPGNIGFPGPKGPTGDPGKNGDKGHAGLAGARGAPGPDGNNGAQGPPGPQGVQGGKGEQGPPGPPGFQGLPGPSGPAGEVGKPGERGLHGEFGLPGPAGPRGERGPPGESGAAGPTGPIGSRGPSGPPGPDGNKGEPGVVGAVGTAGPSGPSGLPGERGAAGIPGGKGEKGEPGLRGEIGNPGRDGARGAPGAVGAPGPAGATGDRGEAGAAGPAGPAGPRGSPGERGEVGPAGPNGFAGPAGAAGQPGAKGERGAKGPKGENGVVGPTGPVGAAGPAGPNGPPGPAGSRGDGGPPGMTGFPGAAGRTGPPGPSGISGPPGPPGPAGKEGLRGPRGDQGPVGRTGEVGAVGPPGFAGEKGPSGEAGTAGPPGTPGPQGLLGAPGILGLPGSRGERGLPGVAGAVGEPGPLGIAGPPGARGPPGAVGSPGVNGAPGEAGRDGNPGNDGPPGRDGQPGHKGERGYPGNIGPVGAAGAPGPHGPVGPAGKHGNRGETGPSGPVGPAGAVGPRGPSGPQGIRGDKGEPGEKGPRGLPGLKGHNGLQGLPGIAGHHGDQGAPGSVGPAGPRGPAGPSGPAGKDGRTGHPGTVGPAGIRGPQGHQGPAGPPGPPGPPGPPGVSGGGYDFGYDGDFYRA
# Procedure: as §1
# [8] = biological target: T2, type I collagen; assay: Turbidimetry binding analysis of TA and type I collagen; conditions: type I collagen 0.24 mg/mL, TA 17 mg/mL, 1:1
# Procedure: as §2
# [9] = Turbidimetry binding analysis of TA and hyaluronic acid; conditions: HA 0.24 mg/mL, TA 17 mg/mL, 1:1
# Procedure: as §2
# [10] = biological target: T1, elastin; assay: Turbidimetry binding analysis of TA and elastin; conditions: elastin 0.24 mg/mL, TA 17 mg/mL, 1:1
# Procedure: as §2
# [11] = 5 μg i.v., non-treated control 51%
molecule,measurement,setting,value
"bFGF: basic fibroblast growth factor, SEQ ID NO: 1",infarct size,[1]; [11],31%
same,infarct size,[1]; 25 μg i.v.,not much different from when 5 μg of bFGF was administered
same,EDP,[2],8.5 ± 0.9 mmHg
same,EDV,[2],365.3 ± 27.5 µL
same,ESP,[2],85.3 ± 1.7 mmHg
same,ESV,[2],254.5 ± 13.8 µL
same,Ea,[2],0.86 ± 0.12 mmHg/μL
same,HR,[2],316.5 ± 12.9 bpm
same,SW,[2],1.51 ± 0.14 mmHg · mL · kg
same,Tau,[2],11.7 ± 0.5 ms
"tannylated bFGF: bFGF (SEQ ID NO: 1) mixed with TA solution, stoichiometric molar ratio [TA]/[bFGF] of 143",infarct size,[1]; [11],approximately 16%
same,EDP,[2],9.8 ± 1.6 mmHg
same,EDV,[2],295.9 ± 23.3 µL
same,ESP,[2],103.8 ± 4.6 mmHg
same,ESV,[2],133.9 ± 19.5 µL
same,Ea,[2],0.77 ± 0.14 mmHg/μL
same,HR,[2],322.7 ± 18.0 bpm
same,SW,[2],3.00 ± 0.53 mmHg · mL · kg
same,Tau,[2],11.7 ± 1.1 ms
same,"hemodynamic functional values (left ventricular pressure, stroke volume, cardiac output, ventricular contractility index)","[2]; i.v., 28 days after injection, versus sham group",recovered all the hemodynamic functional values
"tannylated SP: substance P (SEQ ID NO: 2, RPKPQQFFGLM) mixed with tannic acid solution at [SP]/[TA] ratios 0.5-20",size of complex,[3],up to 1 μm
O=C(OC[C@H]1O[C@@H](OC(=O)c2cc(O)c(O)c(OC(=O)c3cc(O)c(O)c(O)c3)c2)[C@H](OC(=O)c2cc(O)c(O)c(OC(=O)c3cc(O)c(O)c(O)c3)c2)[C@@H](OC(=O)c2cc(O)c(O)c(OC(=O)c3cc(O)c(O)c(O)c3)c2)[C@@H]1OC(=O)c1cc(O)c(O)c(OC(=O)c2cc(O)c(O)c(O)c2)c1)c1cc(O)c(O)c(OC(=O)c2cc(O)c(O)c(O)c2)c1 [tannic acid],SPR ΔRU value,[4],1319
same,turbidity change of HS solution after addition of TA,[5],no turbidity change was observed
same,[TA]/[elastin] ratio of first step (TA conjugated with elastin inter-molecularly),[6]; ITC,up to 20
same,[TA]/[elastin] ratio of second step (inter-TA/elastin complexes conjugated each other),[6]; ITC,≥ 30
same,ITC thermodynamics of binding between TA and elastin,"[6]; elastin 210 μg/mL, TA […]",exothermic interaction
same,SPR ΔRU value,[7],793
same,turbidity (A600) of collagen solution after addition of TA,[8],0.173±0.022
same,turbidity change of HA solution after addition of TA,[9],no turbidity change was observed
same,turbidity (A600) of elastin solution after addition of TA,[10],1.219±0.022

# From patent US11446384B2, “Agent for targeting heart comprising tannic acid” (Korea Research Institute of Chemical Technology, priority 2018, dated 2022)
